# Values of other authors in patent US20220202803A1, “COMBINATION THERAPIES INCLUDING INHIBITORS OF DIHYDROOROTATE DEHYDROGENASE” (Clear Creek Bio, Inc., priority 2019, published 2022).
# What was measured:
# mouse model of AML = conditions: daily administration of high doses
# solid tumor malignancies = conditions: administered over a 5-day period followed by a 3-week gap or once per week for three weeks followed by a 1-week gap
smiles,measurement,setting,value
"Cc1c(-c2ccc(-c3ccccc3F)cc2)nc2ccc(F)cc2c1C(=O)O [brequinar, 6-fluoro-2-(2′-fluoro-1,1′ biphenyl-4-yl)-3-methyl-4-quinoline carboxylic acid]",adverse effects,mouse model of AML,"weight loss, anemia, and thrombocytopenia"
same,efficacy in solid tumor malignancies,solid tumor malignancies,ineffective
